Reference: ChEMBL document CHEMBL5236615, “Discovery of Novel N-Heterocyclic-Fused Deoxypodophyllotoxin Analogues as Tubulin Polymerization Inhibitors Targeting the Colchicine-Binding Site for Cancer Treatment” (J Med Chem, 2022)
The source made the active and inactive calls. The calls are words filed in the database; no cut-off is given here.

Assays:
[1] = MRT (0 to t) in Sprague-Dawley rat at 10 mg/kg, iv measured upto 8 hrs by LC/MS/MS analysis; type: ADME, organism-based; conditions: in vivo
[2] = test system: MCF7; assay: Induction of cell cycle arrest in human MCF7 cells assessed as upregulation of Bcl2 phosphorylation at […] at 5 to 20 nM in presence of roscovitine measured after 24 hrs by Western blot analysis; type: functional, cell-based; conditions: dose 5-20 nM
[3] = biological target: Tubulin beta (Homo sapiens) (UniProt P68371+Q9H4B7+Q13509+P04350+Q3ZCM7+P07437+Q13885+Q9BVA1+Q9BUF5+A6NNZ2); assay: Binding affinity to beta-tubulin colchicine binding site in human MCF-7 cells assessed as inhibition of EBI-beta-tubulin adduct band formation preincubated for 2 hrs followed by EBI addition and measured after 1.5 hrs by EBI competition based Western blotting analysis; type: cell-based; conditions: MCF7, dose 0.2-25 µM, time 3.5 hrs
[4] = Cardiotoxicity in Sprague-Dawley rat assessed as heart rate at 10 to 60 mg/kg, iv measured upto 60 mins by electrocardiography; type: toxicity, organism-based; conditions: in vivo, 1 h, dose 10-60 mg/kg
[5] = test system: MCF7; assay: Antiproliferative activity against human MCF7 cells assessed as survival rate at 20 nM in presence of roscovitine measured after 72 hrs by MTT assay relative to control; type: functional
[6] = Toxicity in Balb/c mouse assessed as pathological changes in blood lactic dehydrogenase level at 20 mg/kg, ip administered for every 2 days for 14 days; type: organism-based; conditions: in vivo, 336 h, time 14 day

COc1c(Cl)cc([C@@H]2c3cc4c(cc3C[C@H]3C(=O)NC(=O)N23)OCCO4)cc1Cl
MRT last at 8 h [1]: 1.79 h
Activity [2]: inactive
Activity [3]: Dose-Dependent Effect
Activity [4]: Non-Toxic
Activity [5]: 60.71%
Activity [6]: Non-Toxic
